Measurements: patent publication US11865098B1, “Methods and compositions for treating excessive sleepiness” (Axsome Malta Ltd., priority 2017, dated 2024)

Test system: adult patients with OSA and ES
Test: Safety and tolerability (TEAEs, vital signs), 12-week parallel study in OSA
Assay type: in vivo, human
Conditions: for Anxiety, incidence / Any TEAE, incidence / Decreased appetite, incidence / Diarrhea, incidence / Discontinuations due to TEAEs, incidence / Dry mouth, incidence / Feeling jittery, incidence / Headache, incidence / Insomnia, incidence / Irritability, incidence / Nasopharyngitis, incidence / Nausea, incidence / Pruritus, incidence / Serious TEAEs, incidence / Sinusitis, incidence: safety population
Method: The study was a 12-week, double-blind, placebo-controlled, parallel design study as described in greater detail in Example 1 (Schweitzer et al., Sleep 40(Abstract Supplement):A237. Abstract 0641 (2017)). Patients were randomized (1:1:2:2:2) to APC 37.5, 75, 150, 300 mg, or placebo for 12 weeks, and were stratified by adherence or non-adherence with primary OSA therapy (adherent definition was use for ≥4 hours per night on >70% of nights). Two patient-reported measures were included as secondary efficacy outcomes to evaluate the effects of APC on functional status and work productivity and activity impairment at baseline and weeks 1, 4, 8, and 12. The Functional Outcomes of Sleep questionnaire short version (FOSQ-10) (Chasens et al., Sleep 32(7):915 (2009)) evaluated the effects of ES on functioning. The Work Productivity and Activity Impairment questionnaire for Specific Health Problems (WPAI:SHP) (Reilly et al., Pharmacoeconomics 4(5):353 (1993); Reilly, Work Productivity and Activity Impairment Questionnaire: Specific Health Problem V2.0 (WPAI: SHP). www.reillyassociates.net/WPAI_SHP) evaluated work productivity impairment among employed patients and overall activity impairment outside of work among all patients for the past 7 days. Four outcomes are available from the WPAI:SHP: Absenteeism (percent work time missed due to health); Presenteeism (percent impairment while working due to health); Percent overall work impairment (calculated from absenteeism and presenteeism); and Percent activity impairment due to health. The FOSQ-10 was evaluated as change over time compared with placebo (least squares (LS) mean); the 4 WPAI outcomes were evaluated at week 12 compared to placebo. Efficacy analyses were based on the modified intent-to-treat population (mITT) and there was no multiplicity adjustment for the FOSQ-10 or WPAI:SHP. Safety and tolerability were assessed based on treatment-emergent adverse events (TEAEs), vital signs, electrocardiogram test, physical exams, Columbia-Suicide Severity Rating Scale, and laboratory tests in the safety population.
Efficacy analyses were based on the modified intent-to-treat (mITT) population; there was no multiplicity adjustment for the SF-36 v2 or EQ-5D-5L. SF-36 v2 scores were scaled from 0 to 100 (higher scores on all scales represent better health), transformed to norm-based scores using US general-population data from SF-36 Manuals (Ware Jr et al., User's Manual for the SF-36v2™ Health Survey (2nd ed.). QualityMetric Incorporated (Lincoln, RI); 2007), and were analyzed using a mixed-effect model with repeated measures (MMRM); and baseline value of the efficacy endpoint was used to determine differences in changes from baseline. EQ-5D-5L VAS and index-score data were analyzed using an MMRM model. Safety and tolerability were assessed based on treatment-emergent adverse events (TEAEs), vital signs, electrocardiogram test, physical exams, and laboratory tests.

For `NC(=O)OC[C@H](N)Cc1ccccc1` [JZP-110, (R)-2-amino-3-phenylpropyl carbamate], the “Serious TEAEs reported (events)” value (37.5 mg) was “bile duct obstruction (n=1) and streptococcal endocarditis (n=1)”, the “Anxiety, incidence” value (37.5 mg (n = 58)) was 1 (1.7) n (%) and the “Any TEAE, incidence” value (37.5 mg (n = 58)) was 37 (63.8) n (%). The “Decreased appetite, incidence” value (37.5 mg (n = 58)) was 1 (1.7) n (%), the “Diarrhea, incidence” value (37.5 mg (n = 58)) was 1 (1.7) n (%) and the “Discontinuations due to TEAEs, incidence” value (37.5 mg (n = 58)) was 3 (5.2) n (%). For the same compound, the “Dry mouth, incidence” value (37.5 mg (n = 58)) was 1 (1.7) n (%), the “Feeling jittery, incidence” value (37.5 mg (n = 58)) was 3 (5.2) n (%) and the “Headache, incidence” value (37.5 mg (n = 58)) was 4 (6.9) n (%). For the same compound, the “Insomnia, incidence” value (37.5 mg (n = 58)) was 1 (1.7) n (%), the “Irritability, incidence” value (37.5 mg (n = 58)) was 3 (5.2) n (%) and the “Nasopharyngitis, incidence” value (37.5 mg (n = 58)) was 2 (3.4) n (%). The “Nausea, incidence” value (37.5 mg (n = 58)) was 3 (5.2) n (%), the “Pruritus, incidence” value (37.5 mg (n = 58)) was 3 (5.2) n (%) and the “Serious TEAEs, incidence” value (37.5 mg (n = 58)) was 2 (3.4) n (%). The “Sinusitis, incidence” value (37.5 mg (n = 58)) was 1 (1.7) n (%), the “Serious TEAEs reported (events)” value (37.5 mg, listed as APC) was “bile duct obstruction (n=1), and streptococcal endocarditis (n=1)” and the “Anxiety, incidence” value (75 mg (n = 62)) was 2 (3.2) n (%). The “Any TEAE, incidence” value (75 mg (n = 62)) was 30 (48.4) n (%), the “Decreased appetite, incidence” value (75 mg (n = 62)) was 3 (4.8) n (%) and the “Diarrhea, incidence” value (75 mg (n = 62)) was 3 (4.8) n (%). The “Discontinuations due to TEAEs, incidence” value (75 mg (n = 62)) was 2 (3.2) n (%), the “Dry mouth, incidence” value (75 mg (n = 62)) was 1 (1.6) n (%) and the “Feeling jittery, incidence” value (75 mg (n = 62)) was 3 (4.8) n (%). For the same compound, the “Headache, incidence” value (75 mg (n = 62)) was 5 (8.1) n (%), the “Insomnia, incidence” value (75 mg (n = 62)) was 0 n (%) and the “Irritability, incidence” value (75 mg (n = 62)) was 0 n (%). The “Nasopharyngitis, incidence” value (75 mg (n = 62)) was 1 (1.6) n (%), the “Nausea, incidence” value (75 mg (n = 62)) was 3 (4.8) n (%) and the “Pruritus, incidence” value (75 mg (n = 62)) was 0 n (%). The “Serious TEAEs, incidence” value (75 mg (n = 62)) was 0 n (%), the “Sinusitis, incidence” value (75 mg (n = 62)) was 4 (6.5) n (%) and the “Serious TEAEs reported (events)” value (150 mg) was “hyperglycemia (n=1)”. For the same compound, the “Anxiety, incidence” value (150 mg (n = 117)) was 6 (5.1) n (%), the “Any TEAE, incidence” value (150 mg (n = 117)) was 83 (70.9) n (%) and the “Decreased appetite, incidence” value (150 mg (n = 117)) was 9 (7.7) n (%). For the same compound, the “Diarrhea, incidence” value (150 mg (n = 117)) was 5 (4.3) n (%), the “Discontinuations due to TEAEs, incidence” value (150 mg (n = 117)) was 5 (4.3) n (%) and the “Dry mouth, incidence” value (150 mg (n = 117)) was 5 (4.3) n (%). The “Feeling jittery, incidence” value (150 mg (n = 117)) was 1 (0.9) n (%), the “Headache, incidence” value (150 mg (n = 117)) was 10 (8.5) n (%) and the “Insomnia, incidence” value (150 mg (n = 117)) was 3 (2.6) n (%). For the same compound, the “Irritability, incidence” value (150 mg (n = 117)) was 4 (3.4) n (%), the “Nasopharyngitis, incidence” value (150 mg (n = 117)) was 7 (6.0) n (%) and the “Nausea, incidence” value (150 mg (n = 117)) was 10 (8.5) n (%). The “Pruritus, incidence” value (150 mg (n = 117)) was 1 (0.9) n (%), the “Serious TEAEs, incidence” value (150 mg (n = 117)) was 1 (0.9) n (%) and the “Sinusitis, incidence” value (150 mg (n = 117)) was 0 n (%). For the same compound, the “Anxiety, incidence” value (300 mg (n = 118)) was 16 (13.6) n (%), the “Any TEAE, incidence” value (300 mg (n = 118)) was 91 (77.1) n (%) and the “Decreased appetite, incidence” value (300 mg (n = 118)) was 14 (11.9) n (%). For the same compound, the “Diarrhea, incidence” value (300 mg (n = 118)) was 8 (6.8) n (%), the “Discontinuations due to TEAEs, incidence” value (300 mg (n = 118)) was 15 (12.7) n (%) and the “Dry mouth, incidence” value (300 mg (n = 118)) was 9 (7.6) n (%). The “Feeling jittery, incidence” value (300 mg (n = 118)) was 7 (5.9) n (%), the “Headache, incidence” value (300 mg (n = 118)) was 17 (14.4) n (%) and the “Insomnia, incidence” value (300 mg (n = 118)) was 11 (9.3) n (%). For the same compound, the “Irritability, incidence” value (300 mg (n = 118)) was 1 (0.8) n (%), the “Nasopharyngitis, incidence” value (300 mg (n = 118)) was 8 (6.8) n (%) and the “Nausea, incidence” value (300 mg (n = 118)) was 12 (10.2) n (%). The “Pruritus, incidence” value (300 mg (n = 118)) was 0 n (%), the “Serious TEAEs, incidence” value (300 mg (n = 118)) was 0 n (%) and the “Sinusitis, incidence” value (300 mg (n = 118)) was 3 (2.5) n (%). The “Mean increase from baseline in diastolic blood pressure” value (12-week OSA study) was 1-3 mmHg, the “Mean increase from baseline in pulse rate” value (12-week OSA study) was 2-5 beats/minute and the “Mean increase from baseline in systolic blood pressure” value (12-week OSA study) was 1-4 mmHg. The “Anxiety, incidence” value (All doses (n = 355)) was 25 (7.0) n (%), the “Any TEAE, incidence” value (All doses (n = 355)) was 241 (67.9) n (%) and the “Decreased appetite, incidence” value (All doses (n = 355)) was 27 (7.6) n (%). The “Diarrhea, incidence” value (All doses (n = 355)) was 17 (4.8) n (%), the “Discontinuations due to TEAEs, incidence” value (All doses (n = 355)) was 25 (7.0) n (%) and the “Dry mouth, incidence” value (All doses (n = 355)) was 16 (4.5) n (%). The “Feeling jittery, incidence” value (All doses (n = 355)) was 14 (3.9) n (%), the “Headache, incidence” value (All doses (n = 355)) was 36 (10.1) n (%) and the “Insomnia, incidence” value (All doses (n = 355)) was 15 (4.2) n (%). For the same compound, the “Irritability, incidence” value (All doses (n = 355)) was 8 (2.3) n (%), the “Nasopharyngitis, incidence” value (All doses (n = 355)) was 18 (5.1) n (%) and the “Nausea, incidence” value (All doses (n = 355)) was 28 (7.9) n (%). For the same compound, the “Pruritus, incidence” value (All doses (n = 355)) was 4 (1.1) n (%), the “Serious TEAEs, incidence” value (All doses (n = 355)) was 3 (0.8) n (%) and the “Sinusitis, incidence” value (All doses (n = 355)) was 8 (2.3) n (%).
